From patent US9155814B2, “Nanostructured material formulated with bone cement for effective antibiotic delivery” (priority 2009, dated 2015)

Test: In vitro drug release study in PBS buffer
Type: physicochemical
Settings: for percentage released: over 70 days, MSN functionalized bone cement loaded with gentamicin and ibuprofen, FIG. 14; for percentage released from the bone cement: MSN-formulated bone cement loaded with gentamicin and indomethacin, FIG. 15, 80 days stated for gentamicin; for amount released as a percentage to the amount loaded: after 80 days, MSN-functionalized bone cement loaded with gentamicin and vancomycin, FIG. 13; for gentamicin released: FIG. 8
Procedure: The drug release study was conducted by socking two cylinder samples of each composition in 5 ml PBS buffer (pH 7.4). The sample was put in an incubator shaker operated at 37° C. and 40 rpm. The release medium was withdrawn at predetermined time intervals, and replaced with fresh PBS buffer (5 ml) each time. The accumulative amount of gentamicin released was calculated based on the initial weight of bone cement cylinder and the drug content. The gentamicin release was followed for 80 days.
The o-phthaldialdehyde was used as a derivatizing agent to react with the amino groups of gentamicin and yield chromophoric products. The reaction was carried out making 1 ml of our problem gentamicin in solution react with 1 ml of isopropanol (to avoid the precipitation of the products formed) and 1 ml of o-phthaldialdehyde reagent. After fully mixed, the concentration of gentamicin sulfate was determined by the UV absorbance at 332 nm.
The concentration of ibuprofen, vancomycin and indomethacin was directly determined by UV-vis detection without the presence of reactive reagent.

Question: For `CC(C)Cc1ccc(C(C)C(=O)O)cc1` (stereo not drawn) [ibuprofen], which percentage released is on record?
Answer: Its percentage released is 47%.

Question: Which “percentage released from the bone cement” value does the source give for `COc1ccc2c(c1)c(CC(=O)O)c(C)n2C(=O)c1ccc(Cl)cc1` [indomethacin] here?
Answer: Its value is 15%.

Question: With `CN[C@H](CC(C)C)C(=O)N[C@H]1C(=O)N[C@@H](CC(N)=O)C(=O)N[C@H]2C(=O)N[C@H]3C(=O)N[C@H](C(=O)N[C@H](C(=O)O)c4cc(O)cc(O)c4-c4cc3ccc4O)[C@H](O)c3ccc(c(Cl)c3)Oc3cc2cc(c3O[C@@H]2O[C@H](CO)[C@@H](O)[C@H](O)[C@H]2O[C@H]2C[C@](C)(N)[C@H](O)[C@H](C)O2)Oc2ccc(cc2Cl)[C@H]1O` [vancomycin] as the compound, how does the “amount released as a percentage to the amount loaded” value read?
Answer: The value was 31%.

Question: For gentamicin, which “percentage released from the bone cement” value is on record?
Answer: The value was 51%.

Question: And the “gentamicin released when loaded alone” value (MSN-functionalized bone cement, gentamicin alone)?
Answer: Its value is 70%.

Question: What about the gentamicin released (SmartSet HV composite bone cement with 2 wt % of MSN) of the same compound?
Answer: The gentamicin released was “much lower”.

Question: What about the gentamicin released (SmartSet HV composite bone cement with 6.0 wt % of MSN) of the same compound?
Answer: The gentamicin released was “more than 55%”.

Question: What about the “amount released as a percentage to the amount loaded” value of the same compound?
Answer: Its value is 40.8%.

Question: What about the percentage released of the same compound?
Answer: Its percentage released is 90%.
